Assay results reported in the supplement of paper PMC12819154, “High-throughput peptide-centric local stability assay extends protein–ligand identification to membrane proteins, tissues and bacteria” (Nature Structural & Molecular Biology, 2025).

Key:
Test in all cases: pEC50 of peptide local stability change
UniProt P07118 = conditions: peptide sequence: ITPAHDFNDYEVGKR; direction: stabilized; replicate design: treated separately
Summary of the method: (§1)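 Reported values are mean pEC50 estimates. They come from four-parameter log-logistic fits of treated/control peptide ratios, measured by DIA LC–MS/MS in four replicates of E. coli K-12 BW25113 lysate (1.2 mg ml^−1, desalted, MgCl2-supplemented) given ATP at seven doses (10 µM–10 mM) or water for 30 min at 25 °C and trypsin-digested for 4 min at 22 °C. A value was kept only when R^2 exceeded 0.9 in at least three replicates and the coefficient of variation was no more than 0.25.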

UniProt Q46802 = conditions: peptide sequence: GAFTGASANGK; direction: stabilized; replicate design: treated separately
Summary of the method: as §1

UniProt P00959 = conditions: peptide sequence: LKENGFIK; direction: stabilized; replicate design: treated separately
UniProt P00959, sequence (P00959 whole entry, looked up): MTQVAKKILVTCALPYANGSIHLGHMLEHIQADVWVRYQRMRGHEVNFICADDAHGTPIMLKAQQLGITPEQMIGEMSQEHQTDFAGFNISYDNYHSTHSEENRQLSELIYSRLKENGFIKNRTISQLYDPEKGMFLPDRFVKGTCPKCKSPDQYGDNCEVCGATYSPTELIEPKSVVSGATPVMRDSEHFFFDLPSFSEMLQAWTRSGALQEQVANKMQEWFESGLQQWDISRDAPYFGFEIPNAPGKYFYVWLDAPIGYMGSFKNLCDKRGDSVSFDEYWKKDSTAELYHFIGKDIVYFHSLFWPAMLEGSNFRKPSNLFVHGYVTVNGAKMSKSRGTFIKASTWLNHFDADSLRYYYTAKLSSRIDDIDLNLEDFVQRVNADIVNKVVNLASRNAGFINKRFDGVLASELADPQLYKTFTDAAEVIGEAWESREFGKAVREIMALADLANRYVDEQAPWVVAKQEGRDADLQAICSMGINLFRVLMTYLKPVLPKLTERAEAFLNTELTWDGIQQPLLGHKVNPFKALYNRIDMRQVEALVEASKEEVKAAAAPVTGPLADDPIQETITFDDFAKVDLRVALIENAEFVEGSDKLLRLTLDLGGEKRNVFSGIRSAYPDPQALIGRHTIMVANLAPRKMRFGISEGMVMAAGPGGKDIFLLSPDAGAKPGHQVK
Summary of the method: as §1

UniProt P76027 = conditions: peptide sequence: EILNLPEHELNKLR; direction: stabilized; replicate design: treated separately
UniProt P76027, sequence (P76027 whole entry): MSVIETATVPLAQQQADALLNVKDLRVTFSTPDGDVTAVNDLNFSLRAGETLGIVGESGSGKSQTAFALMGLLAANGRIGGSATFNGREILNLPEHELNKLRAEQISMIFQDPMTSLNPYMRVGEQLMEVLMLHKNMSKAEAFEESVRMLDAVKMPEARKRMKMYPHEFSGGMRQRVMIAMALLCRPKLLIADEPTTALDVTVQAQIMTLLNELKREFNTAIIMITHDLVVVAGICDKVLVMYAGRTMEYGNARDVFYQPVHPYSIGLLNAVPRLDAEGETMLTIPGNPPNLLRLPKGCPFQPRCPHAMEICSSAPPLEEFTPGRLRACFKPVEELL
Summary of the method: as §1

UniProt P37908 = conditions: peptide sequence: QLSHSPHGR; direction: stabilized; replicate design: treated separately
UniProt P37908, sequence (P37908 whole entry): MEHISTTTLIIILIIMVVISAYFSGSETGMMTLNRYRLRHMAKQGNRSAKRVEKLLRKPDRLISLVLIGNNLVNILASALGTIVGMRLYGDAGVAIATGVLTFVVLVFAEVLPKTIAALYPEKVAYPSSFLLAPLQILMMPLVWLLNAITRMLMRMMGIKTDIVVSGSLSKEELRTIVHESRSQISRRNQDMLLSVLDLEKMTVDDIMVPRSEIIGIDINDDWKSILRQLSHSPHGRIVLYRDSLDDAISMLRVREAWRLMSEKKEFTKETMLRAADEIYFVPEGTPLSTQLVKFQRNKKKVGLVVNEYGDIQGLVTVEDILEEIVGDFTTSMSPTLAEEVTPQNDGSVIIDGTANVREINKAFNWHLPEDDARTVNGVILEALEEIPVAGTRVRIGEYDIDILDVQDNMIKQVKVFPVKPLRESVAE
Summary of the method: as §1

UniProt P06612 = conditions: peptide sequence: DLPTSGSAAKK; direction: stabilized; replicate design: treated separately
UniProt P06612, sequence (P06612 whole entry): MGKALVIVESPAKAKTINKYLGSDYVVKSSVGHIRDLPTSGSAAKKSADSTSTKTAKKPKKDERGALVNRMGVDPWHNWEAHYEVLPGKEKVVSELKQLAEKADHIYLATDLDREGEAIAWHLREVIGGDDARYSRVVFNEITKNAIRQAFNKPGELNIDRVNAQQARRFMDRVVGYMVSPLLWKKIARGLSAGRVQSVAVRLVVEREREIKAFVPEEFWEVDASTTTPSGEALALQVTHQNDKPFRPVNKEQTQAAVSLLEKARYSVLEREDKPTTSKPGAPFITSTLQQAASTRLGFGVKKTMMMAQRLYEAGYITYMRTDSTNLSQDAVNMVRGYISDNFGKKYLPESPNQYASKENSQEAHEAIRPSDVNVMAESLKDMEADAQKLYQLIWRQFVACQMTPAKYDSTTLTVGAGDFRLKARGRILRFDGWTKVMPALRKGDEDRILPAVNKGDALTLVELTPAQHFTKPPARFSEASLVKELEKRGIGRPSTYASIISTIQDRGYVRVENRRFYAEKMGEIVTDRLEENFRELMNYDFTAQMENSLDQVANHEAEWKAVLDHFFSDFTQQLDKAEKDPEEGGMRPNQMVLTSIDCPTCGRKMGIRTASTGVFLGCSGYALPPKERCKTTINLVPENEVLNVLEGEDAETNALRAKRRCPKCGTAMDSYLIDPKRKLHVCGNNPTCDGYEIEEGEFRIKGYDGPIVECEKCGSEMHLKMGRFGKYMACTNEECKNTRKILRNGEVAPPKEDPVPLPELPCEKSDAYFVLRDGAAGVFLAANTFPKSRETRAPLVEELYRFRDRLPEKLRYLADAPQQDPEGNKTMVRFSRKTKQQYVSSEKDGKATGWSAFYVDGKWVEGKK
Summary of the method: as §1

UniProt P77756 = conditions: peptide sequence: ALNHAVSLGMAK; direction: stabilized; replicate design: treated separately
UniProt P77756, sequence (P77756 whole entry): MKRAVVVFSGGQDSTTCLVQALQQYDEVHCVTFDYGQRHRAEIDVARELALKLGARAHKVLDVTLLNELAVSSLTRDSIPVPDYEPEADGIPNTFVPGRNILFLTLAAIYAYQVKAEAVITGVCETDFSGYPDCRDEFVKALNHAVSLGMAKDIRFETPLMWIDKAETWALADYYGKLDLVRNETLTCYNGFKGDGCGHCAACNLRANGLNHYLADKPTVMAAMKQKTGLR
Summary of the method: as §1

UniProt P0AAB8 = conditions: peptide sequence: EQCDLLVCGHHHSFINR; direction: stabilized; replicate design: treated separately
UniProt P0AAB8, sequence (P0AAB8 whole entry): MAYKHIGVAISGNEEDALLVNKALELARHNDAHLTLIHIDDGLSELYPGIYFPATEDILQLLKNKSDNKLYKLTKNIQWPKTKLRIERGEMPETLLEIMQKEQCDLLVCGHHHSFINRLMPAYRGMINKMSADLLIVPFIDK
Summary of the method: as §1

UniProt P76256 = conditions: peptide sequence: GPGSFTGVR; direction: stabilized; replicate design: treated separately
UniProt P76256, sequence (P76256 whole entry): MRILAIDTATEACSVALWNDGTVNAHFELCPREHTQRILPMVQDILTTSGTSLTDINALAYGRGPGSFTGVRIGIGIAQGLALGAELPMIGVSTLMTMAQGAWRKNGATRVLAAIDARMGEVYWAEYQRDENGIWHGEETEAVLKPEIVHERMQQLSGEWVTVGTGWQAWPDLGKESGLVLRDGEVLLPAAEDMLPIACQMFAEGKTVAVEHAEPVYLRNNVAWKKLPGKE
Summary of the method: as §1

UniProt P75821 = conditions: peptide sequence: SAKEPPLTHYGVSK; direction: stabilized; replicate design: treated separately
UniProt P75821, sequence (P75821 whole entry): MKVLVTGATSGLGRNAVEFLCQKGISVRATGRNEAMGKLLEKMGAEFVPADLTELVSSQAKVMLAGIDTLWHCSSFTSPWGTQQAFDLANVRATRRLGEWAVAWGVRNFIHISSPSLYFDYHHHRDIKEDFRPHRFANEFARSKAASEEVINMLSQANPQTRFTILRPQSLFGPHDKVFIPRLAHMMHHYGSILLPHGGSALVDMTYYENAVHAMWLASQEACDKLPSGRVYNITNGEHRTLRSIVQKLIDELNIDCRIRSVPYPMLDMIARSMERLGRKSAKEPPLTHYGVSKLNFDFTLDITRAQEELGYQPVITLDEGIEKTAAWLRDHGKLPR
Summary of the method: as §1

UniProt P77485 = conditions: peptide sequence: GTVAVTSDAR; direction: stabilized; replicate design: treated separately
UniProt P77485, sequence (P77485 whole entry): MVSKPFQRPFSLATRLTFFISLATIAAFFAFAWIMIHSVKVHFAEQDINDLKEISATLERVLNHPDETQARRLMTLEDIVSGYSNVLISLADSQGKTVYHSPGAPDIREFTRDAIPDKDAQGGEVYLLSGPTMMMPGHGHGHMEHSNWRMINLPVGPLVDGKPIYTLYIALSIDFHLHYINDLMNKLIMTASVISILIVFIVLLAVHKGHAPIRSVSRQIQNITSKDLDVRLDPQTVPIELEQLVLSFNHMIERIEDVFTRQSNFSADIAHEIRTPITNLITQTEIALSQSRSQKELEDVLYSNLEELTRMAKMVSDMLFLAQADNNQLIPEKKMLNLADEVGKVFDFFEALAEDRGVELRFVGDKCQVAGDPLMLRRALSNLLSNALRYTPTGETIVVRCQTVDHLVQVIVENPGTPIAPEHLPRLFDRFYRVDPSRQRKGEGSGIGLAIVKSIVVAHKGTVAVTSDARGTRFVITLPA
Summary of the method: as §1

UniProt P07118, sequence (P07118 whole entry): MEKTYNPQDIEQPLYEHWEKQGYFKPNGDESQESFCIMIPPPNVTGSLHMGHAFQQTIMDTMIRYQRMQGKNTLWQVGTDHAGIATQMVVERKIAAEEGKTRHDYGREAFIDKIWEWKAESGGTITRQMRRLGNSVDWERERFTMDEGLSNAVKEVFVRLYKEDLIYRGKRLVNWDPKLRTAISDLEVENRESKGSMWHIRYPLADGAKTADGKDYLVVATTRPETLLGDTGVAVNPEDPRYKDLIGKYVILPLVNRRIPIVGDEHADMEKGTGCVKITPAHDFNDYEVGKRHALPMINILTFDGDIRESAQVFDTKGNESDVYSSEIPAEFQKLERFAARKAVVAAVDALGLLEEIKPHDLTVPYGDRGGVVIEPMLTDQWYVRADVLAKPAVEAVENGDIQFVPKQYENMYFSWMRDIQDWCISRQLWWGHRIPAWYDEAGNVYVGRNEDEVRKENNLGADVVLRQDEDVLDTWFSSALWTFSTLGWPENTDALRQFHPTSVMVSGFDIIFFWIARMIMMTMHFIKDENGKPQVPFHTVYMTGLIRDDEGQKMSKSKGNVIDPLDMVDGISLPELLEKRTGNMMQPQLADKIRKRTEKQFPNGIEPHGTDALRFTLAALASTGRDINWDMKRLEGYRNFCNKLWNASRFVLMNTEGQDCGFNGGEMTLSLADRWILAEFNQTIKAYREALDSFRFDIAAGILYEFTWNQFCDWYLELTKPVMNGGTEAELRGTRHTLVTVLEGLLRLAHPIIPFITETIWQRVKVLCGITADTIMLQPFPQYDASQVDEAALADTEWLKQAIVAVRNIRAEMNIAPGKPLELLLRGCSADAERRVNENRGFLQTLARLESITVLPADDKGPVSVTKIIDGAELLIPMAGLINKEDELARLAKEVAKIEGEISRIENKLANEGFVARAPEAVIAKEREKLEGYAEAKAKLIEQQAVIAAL

For `Nc1ncnc2c1ncn2[C@@H]1O[C@H](COP(=O)(O)OP(=O)(O)OP(=O)(O)O)[C@@H](O)[C@H]1O` [adenosine 5'-triphosphate], the “pEC50 of peptide local stability change” value (UniProt P07118) was 3.75, the “pEC50 of peptide local stability change” value (UniProt Q46802) was 3.29 and the “pEC50 of peptide local stability change” value (UniProt P00959) was 2.99. The “pEC50 of peptide local stability change” value (UniProt P76027) was 2.71, the “pEC50 of peptide local stability change” value (UniProt P37908) was 2.73 and the “pEC50 of peptide local stability change” value (UniProt P06612) was 2.16. The “pEC50 of peptide local stability change” value (UniProt P77756) was 3.62, the “pEC50 of peptide local stability change” value (UniProt P0AAB8) was 3.82 and the “pEC50 of peptide local stability change” value (UniProt P76256) was 3.97. The “pEC50 of peptide local stability change” value (UniProt P75821) was 2.62 and the “pEC50 of peptide local stability change” value (UniProt P77485) was 2.24.
